According to publication PMC11189555, “Aryl amino acetamides prevent Plasmodium falciparum ring development via targeting the lipid-transfer protein PfSTART1” (Nature Communications, 2024):
Where two headings read alike, the source gives them in different places.

How the values were obtained:
[1] = tested on: 3D7 P. falciparum parasites; assay: Growth inhibition assay (72 h, LDH activity); type: cell-based, Plasmodium falciparum; conditions: for EC50: Plasmodium falciparum
Procedure, shortened: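 Synchronised ring-stage P. falciparum (0.3-0.6% parasitemia, 2% haematocrit) grown 72 h in serial compound dilutions, sometimes with 0, 0.25 or 2.5 mM glucosamine. Growth read as LDH activity (Malstat/NBT, A650) after freeze-thaw, normalised to DMSO and uninfected RBC. EC50 by nonlinear regression.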

[2] = molecular target: T1, recombinant PfSTART1(WT) (I149-V394) (Plasmodium falciparum, UniProt Q8I298); assay: Isothermal titration calorimetry; type: binding; conditions: ITC
T1 construct: START domain alone (I149-V394 from PF3D7_0104200); 8xHis tag (N); TEV protease cleavage site (N); made in house; host or cells: Sf21 insect cells (baculovirus)
Text: Codon optimised (Spodoptera frugiperda, Sf) START domain alone (I149-V394 from PF3D7_0104200) was synthesised by Integrated DNA Technologies and cloned into a modified baculovirus transfer vector (pAcGP67-A) with a N-terminal GP67-signal sequence, 8xHis tag, and TEV protease cleavage site. Recombinant baculovirus was generated via the flashBACTM Baculovirus Expression System using Sf21 cells (Life Technologies), amplified to reach a third passage viral stock, and 1.5% used to infect Sf21 for protein expression. After incubation for three days at 28 °C, media containing secreted protein was harvested by centrifugation and supplemented with 50 mM Tris pH 7.5, 20 mM MgCl2, 100 mM NaCl, and 10-20 mM imidazole. The supplemented protein sample was purified by nickel affinity chromatography (HisTrap Excel 5 mL, Cytiva), and eluted with 20 mM Tris pH 7.5, 500 mM NaCl, 300-500 mM imidazole. Eluted fractions were further purified using size-exclusion chromatography (Superdex S75 16/600 or Superdex 10/300, Cytiva) with the column pre-equilibrated with 20 mM HEPES pH 7.5, 150 mM NaCl, and peak-containing fractions concentrated and stored at -80 °C until required. If required, prior to ITC, a second size-exclusion chromatography step was performed to remove soluble aggregates.
ITC experiments were performed on a MicroCal PEAQ-ITC calorimeter at 25 °C, with a stirring speed of 750 rpm and a reference power of 5 μcal/sec. 500 μM M-833 series inhibitor solutions were diluted to 10 μM in 50 mM NaPO4^-3 (pH 7.4), 150 mM NaCl with a final DMSO concentration of 2% (v/v) (cell sample). PfSTART1 protein was dialysed extensively against 50 mM NaPO4^-3 (pH 7.4), 150 mM NaCl, before diluting to 90 μM in the same buffer with 2% (v/v) DMSO (syringe sample). The first injection was 0.4 μL over a 0.8 s duration, and the remaining 19 injections were 2 μL of 4 s duration, with 150 s injection spacing. Data were collected and analysed using the PEAQ-ITC software (MicroCal) and fit by a single site binding model. A fitted offset (constant control heat) was also applied to the integrated heat.

T1 sequence (Q8I298 entry or part of it): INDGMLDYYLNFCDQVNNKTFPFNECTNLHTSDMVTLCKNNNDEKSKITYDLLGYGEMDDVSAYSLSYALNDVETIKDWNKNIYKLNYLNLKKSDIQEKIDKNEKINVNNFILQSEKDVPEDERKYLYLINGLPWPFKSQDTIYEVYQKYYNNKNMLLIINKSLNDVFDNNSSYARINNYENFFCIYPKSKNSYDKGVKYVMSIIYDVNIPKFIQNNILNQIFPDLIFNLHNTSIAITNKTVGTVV

CN(C(=O)C(C)(C)Nc1ccc(Cl)c(S(=O)(=O)N2CCOCC2)c1)c1ccc(F)c(Cl)c1 [compound 4]
Growth inhibition % (LDH, relative to DMSO) ([1]; 3D7, 0.00152416 uM, biological replicate 3 (2023-02-07)): -17.5745
Growth inhibition % (LDH, relative to DMSO) ([1]; 3D7, 0.00304832 uM, biological replicate 1 (2021-10-25)): -18.3864
Growth inhibition % (LDH, relative to DMSO) ([1]; 3D7, 0.00457247 uM, biological replicate 3 (2023-02-07)): -17.9271
Growth inhibition % (LDH, relative to DMSO) ([1]; 3D7, 0.00914495 uM, biological replicate 1 (2021-10-25)): -26.0151
Growth inhibition % (LDH, relative to DMSO) ([1]; 3D7, 0.0137174 uM, biological replicate 3 (2023-02-07)): -25.0392
Growth inhibition % (LDH, relative to DMSO) ([1]; 3D7, 0.0274348 uM, biological replicate 1 (2021-10-25)): -36.8606
Growth inhibition % (LDH, relative to DMSO) ([1]; 3D7, 0.0411523 uM, biological replicate 3 (2023-02-07)): -21.1207
Growth inhibition % (LDH, relative to DMSO) ([1]; 3D7, 0.078125 uM, biological replicate 2 (2023-02-07)): -4.3247
Growth inhibition % (LDH, relative to DMSO) ([1]; 3D7, 0.0823045 uM, biological replicate 1 (2021-10-25)): -42.8019
Growth inhibition % (LDH, relative to DMSO) ([1]; 3D7, 0.123457 uM, biological replicate 3 (2023-02-07)): -34.2281
Growth inhibition % (LDH, relative to DMSO) ([1]; 3D7, 0.15625 uM, biological replicate 2 (2023-02-07)): -4.463
Growth inhibition % (LDH, relative to DMSO) ([1]; 3D7, 0.246914 uM, biological replicate 1 (2021-10-25)): -45.3858
Growth inhibition % (LDH, relative to DMSO) ([1]; 3D7, 0.3125 uM, biological replicate 2 (2023-02-07)): -3.423
Growth inhibition % (LDH, relative to DMSO) ([1]; 3D7, 0.37037 uM, biological replicate 3 (2023-02-07)): -26.6654
Growth inhibition % (LDH, relative to DMSO) ([1]; 3D7, 0.625 uM, biological replicate 2 (2023-02-07)): -4.556
Growth inhibition % (LDH, relative to DMSO) ([1]; 3D7, 0.740741 uM, biological replicate 1 (2021-10-25)): -43.9445
Growth inhibition % (LDH, relative to DMSO) ([1]; 3D7, 1.11111 uM, biological replicate 3 (2023-02-07)): -37.6176
Growth inhibition % (LDH, relative to DMSO) ([1]; 3D7, 1.25 uM, biological replicate 2 (2023-02-07)): 10.8002
Growth inhibition % (LDH, relative to DMSO) ([1]; 3D7, 2.22222 uM, biological replicate 1 (2021-10-25)): -10.0721
Growth inhibition % (LDH, relative to DMSO) ([1]; 3D7, 2.5 uM, biological replicate 2 (2023-02-07)): 18.1545
Growth inhibition % (LDH, relative to DMSO) ([1]; 3D7, 3.33333 uM, biological replicate 3 (2023-02-07)): -31.3871
Growth inhibition % (LDH, relative to DMSO) ([1]; 3D7, 5 uM, biological replicate 2 (2023-02-07)): 37.6735
Growth inhibition % (LDH, relative to DMSO) ([1]; 3D7, 6.66667 uM, biological replicate 1 (2021-10-25)): 35.3489
Growth inhibition % (LDH, relative to DMSO) ([1]; 3D7, 10 uM, biological replicate 2 (2023-02-07)): 60.2451
Growth inhibition % (LDH, relative to DMSO) ([1]; 3D7, 10 uM, biological replicate 3 (2023-02-07)): 26.4107
Growth inhibition % (LDH, relative to DMSO) ([1]; 3D7, 20 uM, biological replicate 1 (2021-10-25)): 75.5669
Growth inhibition % (LDH, relative to DMSO) ([1]; 3D7, 20 uM, biological replicate 2 (2023-02-07)): 87.1878
EC50 ([1]; 3D7, 72 h, Supplementary Table 1, 3D7, 72 h, read-out: EC50): 10 µM
EC50 ([1]; 3D7, Fig 4A, 3D7 parasites, read-out: Pf 3D7 EC50 (SD)): > 10 µM
interaction with PfSTART1(WT) [2]: did not interact
